These results are taken from patent US20080248953A1, “Use of Bacteriocins For Promoting Plant Growth and Disease Resistance” (MCGILL UNIVERSITY, priority 2005, published 2008).

Assay type in all cases: in vivo, Glycine max
One test has as its system peroxidase (POD). As to the kind of experiment: POD activity in soybean leaves. Particulars: 72 h after treatment. On the procedure: (§1) Soybean (Glycine max L. Merr. cv. OAC Bayfield) seeds were surface sterilized in 10% bleach, rinsed several times with distilled water and then germinated and grown in Vermiculite™ (Holiday, Montreal) in a growth chamber under a 16 h/8 h (day/night) regime (natural light supplemented with high pressure sodium lamps to reach the appropriate daylight), at 25±1° C., until they reached vegetative cotyledon (VC) stage (Fehr and Caviness, 1977).
(§2) Treatments of chitin hexamer and thuricin 17 were applied when the seedling reached the first trifoliate stage (˜2 weeks old). Chitin hexamer and thuricin 17 treatments were applied through cut stems, as described by Orozco-Cardenas and Ryan (1999). The plants were excised at the base of the stem with a sharp scalpel and promptly placed in 2 mL Eppendorff™ tubes containing 0.5 mL of 100 μmol L^−1 chitin hexamer [(GlcNAc)6], 0.5 mL of […] thuricin 17, and chitin hexamer+thuricin 17 mixed (1:1) solution in phosphate buffer (15 mM sodium phosphate, pH 6.5). […]
The activity of peroxidase (POD) was assessed using the method of Chance and Maehly (1955). […] The reaction was started with addition of 20 μL of 40 mM H2O2 and the change in the absorbance at 470 nm was recorded for 1 min. The activity of peroxidase was calculated using an extinction coefficient for the tetraguaiacol of 26.6 mM^−1 cm^−1 at 470 nm. […]

The subject of the next test is total phenolic compounds. Kind of test: Total phenolics in soybean leaves (Folin-Ciocalteu). The procedure: as §1
as §2, with “6.5). The control plants were treated with phosphate buffer solution alone.” for “6.5).”
Total phenolic content was determined by the Folin-Ciocalteu method (Singleton and Rossi, 1965). […] After 3 min, 0.475 mL of 1 mol L^−1 Na2CO3 was added and after 1 h absorbance was measured. […] The total phenolic content was expressed as gallic acid equivalents (GAE) in mg g^−1 fresh weight (FW).

Test [1] concerns superoxide dismutase (SOD). Kind of test: SOD activity in soybean leaves. The procedure:
as §1
as §2, with “6.5). The control plants were treated with phosphate buffer solution alone.” for “6.5).”
The activity of superoxide dismutase (SOD) was determined by measuring its ability to inhibit the photoreduction of nitroblue tetrazolium (NBT) following the method of Giannopolitis and Ries (1977). […] Absorbance was recorded at 560 nm. […]

For test [2], the system named is tyrosine ammonia lyase (TAL). As to the kind of experiment: TAL activity in soybean leaves after treatment. On the procedure:
as §1
as §2, with “6.5). The control plants were treated with phosphate buffer solution alone. Once all the solution was taken up by the plants (4-6 h), they were immediately transferred to glass test tubes containing 20 mL distilled water. The plants were kept under constant white light (85 μmol·m^−2·s^−1).” for “6.5).”
(§3) Leaf samples (300 mg fresh weight) were extracted in 4 mL of buffer (50 mM Tris pH 8.5, 14.4 mmol L^−1 2-mercaptoethanol, 1% w/v insoluble polyvinyl-polypyrrorolidone) and centrifuged at 6,000 g for 10 min at 4° C. The total protein concentration in soluble enzyme extracts was determined using the Bradford (1976) assay.
(§4) The method of Beaudoin-Eagan and Thorpe (1985) was used to estimate phenylalanine ammonia lyase (PAL) and tyrosine ammonia lyase (TAL) activities. […] The amounts of trans-cinnamic and p-coumaric acids formed were determined by measuring absorbance at 290 and 330 nm, respectively, against an identical mixture in which D-phenylalanine was substituted for L-phenylalanine and D-tyrosine for L-tyrosine. […]

The test system of test [3] is phenylalanine ammonia lyase (PAL). As to the kind of experiment: PAL activity in soybean leaves after treatment. On the procedure:
as §1
as §2, with “6.5). The control plants were treated with phosphate buffer solution alone. Once all the solution was taken up by the plants (4-6 h), they were immediately transferred to glass test tubes containing 20 mL distilled water. The plants were kept under constant white light (85 μmol·m^−2·s^−1).” for “6.5).”
as §3, §4

Another test concerns catalase (CAT). As to the kind of experiment: Catalase activity staining after PAGE. The following applies: soybean leaves. The procedure:
Treatments of chitin hexamer and thuricin 17 were applied when the seedling reached the first trifoliate stage (˜2 weeks old). Chitin hexamer and thuricin 17 treatments were applied through cut stems, as described by Orozco-Cardenas and Ryan (1999). The plants were excised at the base of the stem with a sharp scalpel and promptly placed in 2 mL Eppendorff™ tubes containing 0.5 mL of 100 μmol L^−1 chitin hexamer [(GlcNAc)6], 0.5 mL of […] thuricin 17, and chitin hexamer+thuricin 17 mixed (1:1) solution in phosphate buffer (15 mM sodium phosphate, pH 6.5). The control plants were treated with phosphate buffer solution alone. Once all the solution was taken up by the plants (4-6 h), they were immediately transferred to glass test tubes containing 20 mL distilled water. The plants were kept under constant white light (85 μmol·m^−2·s^−1). Leaves were collected at 12, 24, 36, 48, 60 and 72 h after elicitor treatment, weighed, placed in plastic bags and stored immediately at −80° C.
For the catalase activity (CAT) staining after 12.5% PAGE, the gel was incubated with 3.2 mM H2O2 for 20 min, and a treatment with a solution containing 1% FeCl3 and 1% K3Fe(CN)6 for 10 min, as described by Racchi et al (2001).

Structures are written as SMILES.

As for `CC(=O)N[C@H]1[C@H](O[C@H]2[C@H](O)[C@@H](NC(C)=O)[C@H](O[C@H]3[C@H](O)[C@@H](NC(C)=O)C(O)O[C@@H]3CO)O[C@@H]2CO)O[C@H](CO)[C@@H](O[C@@H]2O[C@H](CO)[C@@H](O[C@@H]3O[C@H](CO)[C@@H](O[C@@H]4O[C@H](CO)[C@@H](O)[C@H](O)[C@H]4NC(C)=O)[C@H](O)[C@H]3NC(C)=O)[C@H](O)[C@H]2NC(C)=O)[C@@H]1O` (stereo partly drawn) [chitin hexamer, chitin hexamer [(GlcNAc)6]], the “POD activity increase compared with control” value in the test on peroxidase (POD) is reported as 40.3%. Besides, the “total phenolics increase compared with the control” value with total phenolic compounds (36 h after treatment) turned out to be 15.3%; in the test on total phenolic compounds (72 h after treatment) it was 1.4%. The “induction of SOD activity” value in test [1] is given as “not induced”. In test [1] (48 h after treatment), the “SOD activity increase compared with control” value came to 24.9%. For the same molecule, the “TAL activity time course” value in test [2] (12 to 72 h after treatment) is recorded as “increased continuously”. Moreover, the figures for the “TAL activity increase compared with the control” value in test [2] (48 h after treatment) and in test [2] (72 h after treatment) were 18.8% and 23.8%, respectively. In addition, the “PAL activity time course” value in test [3] (12 to 72 h after treatment) is on record as “increased continuously”. Besides, the “PAL activity increase compared with control” value in test [3] (60 h after treatment) is on record as 8.4%. Also, the “PAL activity greater than the control” value in test [3] (72 h after treatment) is listed as 18.1%. Besides, in the test with catalase (CAT), the “induction of CAT activity” value is “elicited increases”.
